The subject of assay [1] is BaF3. The assay can be described thus: Antitumor activity against mouse BaF3 cells expressing […]-wild type TRKA xenografted in BALB/c mouse assessed as inhibition of tumor growth at 30 mg/kg, po bid for 11 to 14 days by microcaliper analysis. Particulars: time 11-14 day, read-out: TGI. It counts as functional.
For assay [2], the system named is BaF3. The assay can be described thus: animal or person. Particulars: Mus musculus, BaF3, po, read-out: TGI.

Our source for the inhibition in vivo values is ChEMBL document CHEMBL5108021, “Discovery of 3-pyrazolyl-substituted pyrazolo[1,5-a]pyrimidine derivatives as potent TRK inhibitors to overcome clinically acquired resistance” (Eur J Med Chem, 2022).

Consider `O=C(Nc1cnn2ccc(N3CCC[C@@H]3c3cc(F)ccc3F)nc12)N1CC[C@H](O)C1` [LAROTRECTINIB], for which, in assay [1], the inhibition in vivo at 30 mg/kg came out at 74%.

Turning to `C[C@@H]1CCc2ncc(F)cc2[C@H]2CCCN2c2ccn3ncc(c3n2)C(=O)N1` [SELITRECTINIB], the inhibition in vivo at 100 mg/kg in assay [2] worked out at 64%.
